Measurements taken from ChEMBL document CHEMBL2016451, “Antimycobacterial activity of bisbenzylisoquinoline alkaloids from Tiliacora triandra against multidrug-resistant isolates of Mycobacterium tuberculosis” (Bioorg Med Chem Lett, 2012).
In brackets after ≈: the same amount, converted by molar mass.

Columns and labels:
Assay type in all cases: functional
[1] = tested on: Mycobacterium tuberculosis; experiment: Antimycobacterial activity against ethionamide-resistant Mycobacterium tuberculosis H37Rv ATCC 35830 after 16 to 24 hrs by alamar blue assay
[2] = tested on: Mycobacterium tuberculosis; experiment: Antimycobacterial activity against pyrazinamide-resistant Mycobacterium tuberculosis H37Rv ATCC 35828 after 16 to 24 hrs by alamar blue assay
[3] = tested on: Mycobacterium tuberculosis; experiment: Antimycobacterial activity against isoniazid-, rifampin-resistant Mycobacterium tuberculosis after 16 to 24 hrs by alamar blue assay
[4] = tested on: Mycobacterium tuberculosis; experiment: Antimycobacterial activity against isoniazid-, rifampin-, ethambutol-resistant Mycobacterium tuberculosis after 16 to 24 hrs by alamar blue assay
[5] = tested on: Mycobacterium tuberculosis; experiment: Antimycobacterial activity against isoniazid-, rifampin-, streptomycin-resistant Mycobacterium tuberculosis after 16 to 24 hrs by alamar blue assay
[6] = tested on: Mycobacterium tuberculosis; experiment: Antimycobacterial activity against isoniazid-, rifampin-, streptomycin-, ethambutol-resistant Mycobacterium tuberculosis after 16 to 24 hrs by alamar blue assay
[7] = tested on: Mycobacterium tuberculosis; experiment: Antimycobacterial activity against isoniazid-, rifampin-, ofloxacin-, ethambutol-resistant Mycobacterium tuberculosis after 16 to 24 hrs by alamar blue assay
[8] = tested on: Mycobacterium tuberculosis; experiment: Antimycobacterial activity against isoniazid-, rifampin-, ofloxacin-, streptomycin-resistant Mycobacterium tuberculosis after 16 to 24 hrs by alamar blue assay
[9] = tested on: Mycobacterium tuberculosis; experiment: Antimycobacterial activity against isoniazid-, rifampin-, ofloxacin-, ethambutol-, streptomycin-resistant Mycobacterium tuberculosis after 16 to 24 hrs by alamar blue assay

Row | Compound | MIC [1] | MIC [2] | MIC [3] | MIC [4] | MIC [5] | MIC [6] | MIC [7] | MIC [8] | MIC [9]
1 | COc1ccc2cc1-c1cc(ccc1O)C[C@@H]1NCCc3cc4c(cc31)Oc1c(c(OC)cc3c1[C@H](C2)N(C)CC3)O4 | 6.2 µg/mL (≈ 11 µM) | 6.2 µg/mL (≈ 11 µM) | – | – | – | – | – | – | –
2 | COc1ccc2cc1-c1cc(cc(Br)c1O)C[C@H]1c3cc4c(cc3CCN1C)Oc1c(OC)cc3c(c1O4)[C@H](C2)N(C)CC3 | 3.1 µg/mL (≈ 4.73 µM) | 3.1 µg/mL (≈ 4.73 µM) | – | – | – | – | – | – | –
3 | CC[C@@H](CO)NCCN[C@@H](CC)CO [ETHAMBUTOL] | – | – | ≤ 2 µg/mL | ≥ 8 µg/mL | ≤ 2 µg/mL | ≥ 8 µg/mL | ≥ 8 µg/mL | ≤ 2 µg/mL | ≥ 8 µg/mL
4 | NNC(=O)c1ccncc1 [ISONIAZID] | – | – | ≥ 2 µg/mL | ≥ 2 µg/mL | ≥ 2 µg/mL | ≥ 2 µg/mL | ≥ 2 µg/mL | ≥ 2 µg/mL | ≥ 2 µg/mL
5 | CC1COc2c(N3CCN(C)CC3)c(F)cc3c(=O)c(C(=O)O)cn1c23 (stereo not drawn) [OFLOXACIN] | – | – | ≤ 2 µg/mL | ≤ 2 µg/mL | ≤ 2 µg/mL | ≤ 2 µg/mL | ≥ 4 µg/mL | ≥ 4 µg/mL | ≥ 4 µg/mL
6 | CO[C@H]1/C=C/O[C@@]2(C)Oc3c(C)c(O)c4c(O)c(c(/C=N/N5CCN(C)CC5)c(O)c4c3C2=O)NC(=O)/C(C)=C\C=C\[C@H](C)[C@H](O)[C@@H](C)[C@@H](O)[C@@H](C)[C@H](OC(C)=O)[C@@H]1C [RIFAMPIN] | – | – | ≥ 2 µg/mL | ≥ 2 µg/mL | ≥ 2 µg/mL | ≥ 2 µg/mL | ≥ 2 µg/mL | ≥ 2 µg/mL | ≥ 2 µg/mL
7 | CN[C@@H]1[C@H](O[C@H]2[C@H](O[C@H]3[C@H](O)[C@@H](O)[C@H](N=C(N)N)[C@@H](O)[C@@H]3N=C(N)N)O[C@@H](C)[C@]2(O)C=O)O[C@@H](CO)[C@H](O)[C@H]1O [STREPTOMYCIN] | – | – | ≤ 2 µg/mL | ≤ 2 µg/mL | ≥ 8 µg/mL | ≥ 8 µg/mL | ≤ 2 µg/mL | ≥ 8 µg/mL | ≥ 8 µg/mL
8 | COc1ccc2cc1-c1cc(ccc1O)C[C@H]1c3cc4c(cc3CCN1C)Oc1c(OC)cc3c(c1O4)[C@@H](C2)N(C)CC3 [TILIACORINE] | 3.1 µg/mL (≈ 5.38 µM) | 6.2 µg/mL (≈ 10.8 µM) | – | – | – | – | – | – | –
9 | COc1ccc2cc1-c1cc(ccc1O)C[C@H]1c3cc4c(cc3CCN1C)Oc1c(OC)cc3c(c1O4)[C@H](C2)N(C)CC3 [TILIACORININE] | 3.1 µg/mL (≈ 5.38 µM) | 6.2 µg/mL (≈ 10.8 µM) | – | – | – | – | – | – | –
